Like-named read-outs stand apart in the source and are kept apart here.
Tests used:
A2780 cells = experiment: In-vitro cell proliferation assay (SRB), A2780 cells; assay type: cell-based; settings: Homo sapiens, A2780, 72 h, A2780 cells, 72 hours, read-out: A2780 IC50
Description: In-Vitro Cell Proliferation Assay
After overnight incubation at 37° C. and 5% CO2, the compound titrations were performed in a separate dilution plate by serially diluting the compounds in DMSO to make a 1000× stock. The compounds were then further diluted to 10× final concentration in culture media, whereupon 20 μL of each dilution was added to the plated cells with controls (e.g. DMSO and blank) to make a final volume of 200 μL. The final DMSO concentration in each well was 0.1%. The plates were then incubated for 72 hours at 37° C. in a 5% CO2 incubator. The number of viable cells was then assessed using sulforhodamine B (SRB) assay. Cells were fixed at 4° C. for 1 hour with the addition of 50 μL 30% trichloroacetic acid (TCA) to make a final concentration of 6% TCA. The plates were washed four times with H2O and allowed to dry for at least 1 hour, whereupon 100 μL of a 4% SRB in 1% acetic acid solution was added to each well and incubated at room temperature for at least 30 minutes. The plates were then washed three times with 1% acetic acid, dried, and treated with 100 μL of 10 mM Tris-Base solution. The plates were then read in a microplate reader at an absorbance of 570 nm. Background was generated on a separate plate with media only.
Method for Determining % Inhibition
First, the signals from the background plate are averaged, then the background was subtracted from the test plates.
wherein X denotes the compound concentration 1, Y denotes the compound concentration 2, XX denotes the % inhibition at compound concentration 1 (X), and YY denotes the % inhibition at compound concentration 2 (Y).

NAMPT = target: T1, NAMPT (Homo sapiens, UniProt P43490); experiment: Biochemical inhibition assay: NAMPT enzymatic reaction, NMN quantified by mass spectrometry; settings: read-out: Biochem IC50
T1 construct: His tag; host or cells: E. coli
Description: Biochemical Inhibition Assay
NAMPT Protein Purification
Recombinant His-tagged NAMPT was produced in E. coli cells, purified over a Ni column, and further purified over a size-exclusion column by XTAL Biostructures.
The NAMPT Enzymatic Reaction
The NAMPT enzymatic reactions were carried out in Buffer A (50 mM Hepes pH 7.5, 50 mM NaCl, 5 mM MgCl2, and 1 mM THP) in 96-well V-bottom plates. The compound titrations were performed in a separate dilution plate by serially diluting the compounds in DMSO to make a 100× stock. […] The compound and enzyme mix was incubated for 15 minutes at room temperature, then 10 μL of 10× substrate and co-factors in Buffer A were added to the test well to make a final concentration of 1 μM NAM, 100 μM 5-Phospho-D-ribose 1-diphosphate (PRPP), and 2.5 mM Adenosine 5′-triphosphate (ATP). The reaction was allowed to proceed for 30 minutes at room temperature, then was quenched with the addition of 11 μL of a solution of formic acid and L-Cystathionine to make a final concentration of 1% formic acid and 10 μM L-Cystathionine. Background and signal strength was determined by addition (or non-addition) of a serial dilution of NMN to a pre-quenched enzyme and cofactor mix.
A mass spectrometry-based assay was used to measure the NAMPT reaction product (NMN) and the internal control (L-Cystathionine). NMN and L-Cystathionine were detected using the services of Biocius Lifesciences with the RapidFire system. In short, the NMN and L-Cystathionine are bound to a graphitic carbon cartridge in 0.1% formic acid, eluted in 30% acetonitrile buffer, and injected into a Sciex 4000 mass spectrometer. The components of the sample were ionized with electrospray ionization and the positive ions were detected. […] The fragments are quantified and the analyzed by the following method.
First the NMN signal is normalized to the L-Cystathionine signal by dividing the NMN signal by the L-Cystathionine signal for each well. The signal from the background wells are averaged and subtracted from the test plates. […] IC50s are Determined Using Excel and this Formula.

T1 sequence (P43490 whole entry): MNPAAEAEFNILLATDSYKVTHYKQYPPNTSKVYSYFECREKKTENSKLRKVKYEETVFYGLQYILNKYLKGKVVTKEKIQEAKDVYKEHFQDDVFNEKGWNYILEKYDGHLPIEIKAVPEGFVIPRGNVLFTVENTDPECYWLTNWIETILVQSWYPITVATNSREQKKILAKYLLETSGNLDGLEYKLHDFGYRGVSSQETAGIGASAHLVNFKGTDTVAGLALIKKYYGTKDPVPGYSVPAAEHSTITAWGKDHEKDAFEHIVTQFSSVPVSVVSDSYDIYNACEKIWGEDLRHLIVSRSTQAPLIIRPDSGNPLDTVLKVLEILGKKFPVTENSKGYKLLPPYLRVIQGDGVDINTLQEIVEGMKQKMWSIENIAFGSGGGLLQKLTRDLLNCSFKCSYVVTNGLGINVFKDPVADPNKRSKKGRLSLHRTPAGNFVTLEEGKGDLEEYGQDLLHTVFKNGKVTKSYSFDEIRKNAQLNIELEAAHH

| Compound | IC50 (A2780 cells; SRB) [nM] | IC50 (NAMPT; NAMPT enzymatic assay) [nM] | IC50 (NAMPT; NAMPT enzymatic reaction) [nM] | IC50 (A2780 cells; SRB assay) [nM] |
| --- | --- | --- | --- | --- |
| O=C(NCc1ccc(S(=O)(=O)c2ccc(Cn3ccnc3)cc2)cc1)c1cc2ccncc2s1 | 12.2 | 5.3 | – | – |
| CN(C)Cc1cccc(S(=O)(=O)c2ccc(CNC(=O)c3cc4ccncc4o3)cc2)c1 | 6.2 | 4.7 | – | – |
| N#Cc1cccc(S(=O)(=O)c2ccc(CNC(=O)c3cnc4[nH]ncc4c3)cc2)c1 [N-({4-[(3-cyanobenzene)sulfonyl]phenyl}methyl)-1H-pyrazolo[3,4-b]pyridine-5-carboxamide] | 9.54 | – | 18.5 | – |
| CCOc1cccc(S(=O)(=O)c2ccc(CNC(=O)c3ccc4nccn4c3)cc2)c1 | 3.1 | – | 5 | – |
| Cc1cncc(S(=O)(=O)c2ccc(CNC(=O)c3cc4ccncc4s3)cc2)n1 [N-{[4-(6-methylpyrazine-2-sulfonyl)phenyl]methyl}thieno[2,3-c]pyridine-2-carboxamide] | 5.1 | 4.8 | – | – |
| CCOc1cccc(S(=O)(=O)c2ccc(CNC(=O)c3cc4ccncc4s3)cc2)c1F | 12.9 | – | 3.7 | – |
| O=C(NCc1ccc(S(=O)(=O)c2ccc(C(F)(F)F)cn2)cc1)c1cc2ccncc2o1 [N-({4-[5-(trifluoromethyl)pyridine-2-sulfonyl]phenyl}methyl)furo[2,3-c]pyridine-2-carboxamide] | 100 to 1000 | 37 | – | – |
| Cc1ccc(S(=O)(=O)c2ccc(CNC(=O)c3cc4ccncc4s3)cc2)c(F)c1 [N-({4-[(2-fluoro-4-methylbenzene)sulfonyl]phenyl}methyl)thieno[2,3-c]pyridine-2-carboxamide] | – | – | 8 | 20.7 |
| CC(C)Oc1cccc(S(=O)(=O)c2ccc(CNC(=O)c3ccc4nccn4c3)cc2)c1F | 4 | 7.8 | – | – |
| Cc1nc(C)c(S(=O)(=O)c2ccc(CNC(=O)c3ccc4nccn4c3)cc2)s1 [N-{[4-(dimethyl-1,3-thiazole-5-sulfonyl)phenyl]methyl}imidazo[1,2-a]pyridine-6-carboxamide] | 3.7 | 9 | – | – |
| CCN(CC)C(=O)c1cc(Cl)cc(S(=O)(=O)c2ccc(CNC(=O)c3cnc4nccn4c3)cc2)c1 | 1.2 | 0.9 | – | – |
| CC(C)COc1cccc(S(=O)(=O)c2ccc(CNC(=O)c3cc4cnccc4[nH]3)cc2)c1 [N-[(4-{[3-(2-methylpropoxy)benzene]sulfonyl}phenyl)methyl]-1H-pyrrolo[3,2-c]pyridine-2-carboxamide] | 14.3 | 32.2 | – | – |
| O=C(NCc1ccc(S(=O)(=O)c2cc(Cl)cc(CO)c2)cc1)c1cnc2nccn2c1 | 11.4 | 3.4 | – | – |
| CS(=O)(=O)c1cccc(S(=O)(=O)c2ccc(CNC(=O)c3cc4ccncc4s3)cc2)c1 | 3.5 | – | 1.7 | – |
| CC(C)Oc1ccc(S(=O)(=O)c2ccc(CNC(=O)c3cc4ccncc4o3)cc2)cc1 | 5.7 | 6.8 | – | – |
| Cn1ncc2ccc(S(=O)(=O)c3ccc(CNC(=O)c4cc5cnccc5[nH]4)cc3)cc21 [N-{[4-(1-methyl-1H-indazole-6-sulfonyl)phenyl]methyl}-1H-pyrrolo[3,2-c]pyridine-2-carboxamide] | 3.3 | 5.1 | – | – |
| Cc1cc(C(F)(F)F)ccc1S(=O)(=O)c1ccc(CNC(=O)c2cc3ccncc3s2)cc1 | 24.2 | 10.3 | – | – |
| O=C(NCc1ccc(S(=O)(=O)c2cncc(F)c2)cc1)c1cnc2[nH]ncc2c1 [N-{[4-(5-fluoropyridine-3-sulfonyl)phenyl]methyl}-1H-pyrazolo[3,4-b]pyridine-5-carboxamide] | 25.4 | 79.2 | – | – |

| Compound | IC50 (A2780 cells; SRB) [nM] | IC50 (NAMPT; NAMPT enzymatic assay) [nM] | IC50 (NAMPT; NAMPT enzymatic reaction) [nM] | IC50 (A2780 cells; SRB assay) [nM] |
| --- | --- | --- | --- | --- |
| O=C(NCc1ccc(S(=O)(=O)Nc2ccccc2Oc2ccccc2)cc1)c1cc2cnccc2[nH]1 [N-({4-[(2-phenoxyphenyl)sulfamoyl]phenyl}methyl)-1H-pyrrolo[3,2-c]pyridine-2-carboxamide] | – | – | 4020 | 12000 |
| NS(=O)(=O)c1cccc(S(=O)(=O)c2ccc(CNC(=O)c3cc4ccncc4s3)cc2)c1 | 12.1 | – | 2 | – |
| O=C(NCc1ccc(S(=O)(=O)c2cccc(N3CCCCC3)c2)cc1)c1cc2ccncc2o1 [N-[(4-{[3-(piperidin-1-yl)benzene]sulfonyl}phenyl)methyl]furo[2,3-c]pyridine-2-carboxamide] | 12.7 | 11.3 | – | – |
| O=C(NCc1ccc(S(=O)(=O)c2cccc3cccnc23)cc1)c1cc2ccncc2s1 [N-{[4-(quinoline-8-sulfonyl)phenyl]methyl}thieno[2,3-c]pyridine-2-carboxamide] | – | – | 6 | 2.5 |
| O=C(NCc1ccc(S(=O)(=O)Nc2ccccc2N2CCCCC2)cc1)c1cc2cnccc2[nH]1 [N-[(4-{[2-(piperidin-1-yl)phenyl]sulfamoyl}phenyl)methyl]-1H-pyrrolo[3,2-c]pyridine-2-carboxamide] | – | – | 72 | 8 |
| COc1ccc(S(=O)(=O)c2ccc(CNC(=O)c3cc4cnccc4[nH]3)cc2)c(C)c1 [N-({4-[(4-methoxy-2-methylbenzene)sulfonyl]phenyl}methyl)-1H-pyrrolo[3,2-c]pyridine-2-carboxamide] | – | – | 24 | 24 |
| Cc1cc(Cl)cnc1S(=O)(=O)c1ccc(CNC(=O)c2cnc3nccn3c2)cc1 [N-{[4-(5-chloro-3-methylpyridine-2-sulfonyl)phenyl]methyl}imidazo[1,2-a]pyrimidine-6-carboxamide] | 22 | 2.2 | – | – |
| COc1cc(Cl)ccc1S(=O)(=O)c1ccc(CNC(=O)c2ccc3nccn3c2)cc1 [N-({4-[(4-chloro-2-methoxybenzene)sulfonyl]phenyl}methyl)imidazo[1,2-a]pyridine-6-carboxamide] | 12.6 | – | 18.7 | – |
| O=C(NCc1ccc(S(=O)(=O)c2cncc3ccccc23)cc1)c1cc2cnccc2[nH]1 [N-{[4-(isoquinoline-4-sulfonyl)phenyl]methyl}-1H-pyrrolo[3,2-c]pyridine-2-carboxamide] | 1.6 | 10.9 | – | – |
| Cn1ncc2cccc(S(=O)(=O)c3ccc(CNC(=O)c4cnc5nccn5c4)cc3)c21 [N-{[4-(1-methyl-1H-indazole-7-sulfonyl)phenyl]methyl}imidazo[1,2-a]pyrimidine-6-carboxamide] | 100 to 1000 | 23.3 | – | – |
| Cc1ncccc1S(=O)(=O)c1ccc(CNC(=O)c2cnc3nccn3c2)cc1 [N-{[4-(2-methylpyridine-3-sulfonyl)phenyl]methyl}imidazo[1,2-a]pyrimidine-6-carboxamide] | 100 to 1000 | 20.8 | – | – |
| COc1cc(Cl)cc(S(=O)(=O)c2ccc(CNC(=O)c3cnc4nccn4c3)cc2)c1 | 0.8 | – | 1.3 | – |
| COc1cc(C)c(S(=O)(=O)c2ccc(CNC(=O)c3cnc4nccn4c3)cc2)cc1C | 13 | – | 5.2 | – |
| O=C(NCc1ccc(S(=O)(=O)c2cc(C(F)(F)F)ccc2OCc2ccccc2)cc1)c1cnc2nccn2c1 | 100 to 1000 | 33.2 | – | – |
| CN(C)CCc1ccc(S(=O)(=O)c2ccc(CNC(=O)c3cnc4nccn4c3)cc2)cc1 | 18.1 | 2 | – | – |
| COc1cc(C)cc(OC)c1S(=O)(=O)c1ccc(CNC(=O)c2cc3cnccc3[nH]2)cc1 [N-({4-[(2,6-dimethoxy-4-methylbenzene)sulfonyl]phenyl}methyl)-1H-pyrrolo[3,2-c]pyridine-2-carboxamide] | – | – | 16 | 10 |
| Cc1cc(F)cc(S(=O)(=O)c2ccc(CNC(=O)c3cnc4[nH]ncc4c3)cc2)c1 | 5.6 | – | 9.5 | – |

Source: patent publication US12336981B2, “Compounds and compositions for the inhibition of NAMPT” (Valo Health, Inc., priority 2010, dated 2025)
